The test relates to B10.BR recipients (acute GVHD). In words: Acute GVHD after allogeneic BMT: lethally irradiated B10.BR recipients given B6 BM and splenocytes. The format is in vivo, mice. As to conditions: 15×10^6 splenocytes, ATRA 200 μg/mouse IP daily day 0 to 28. On the procedure: FIG. 3. Heightened RA levels and RAR-α signaling exacerbates GVHD. Survival and weight curves of lethally irradiated B10.BR recipients (n=8/group) injected with 10^7 BM and 15×10^6 splenocytes from B6 mice. Subgroups were treated with vehicle (filled circles) or all trans retinoic acid (ATRA) (open circles) p=0.013.
FIG. 4. Heightened RA levels and RAR-α signaling exacerbates GVHD. Survival and weight curves of lethally irradiated B10.BR recipients (n=8/group) injected with 10^7 BM and 5×10^6 splenocytes from B6 mice. Subgroups were treated with vehicle (filled circles) or ATRA (open circles) p=0.037.
To determine whether heightened vitamin A signaling would augment acute GVHD, B10.BR recipients given BM with or without 15×10^6 splenocytes from B6 mice were given ATRA (200 μg/mouse IP) daily from day 0 to 28. […] These findings indicate heightened vitamin A levels and RAR signaling can enhance GVHD lethality.

Structures are written as SMILES.

This is an account of results in patent US20140194517A1, “Treatment of Graft-Versus-Host Disease Disorders using RAR Antagonists” (Io Therapeutics, Inc., priority 2013, published 2014).

Consider `CC1=C(/C=C/C(C)=C/C=C/C(C)=C/C(=O)O)C(C)(C)CCC1` [ATRA, all trans retinoic acid], for which the GVHD lethality result (p=0.013 vs vehicle) is reported as “significant increase”. In addition, the “median survival time (MST)” value (vehicle 21.5 days) was found to be 9 days. In addition, the weight loss result (vs vehicle) is reported as “accelerated weight loss”.
